The record followed here is US12331046B2, “CTPS1 inhibitors and uses thereof” (Nimbus Clotho, Inc., priority 2020, dated 2025).

As a reminder, the IC50 is the concentration at which inhibition is half-maximal.

The target in this assay is human CTPS1 (Homo sapiens (Human), UniProt P17812). As to the kind of experiment: hCTPS1 biochemical assay (ADP-Glo). The conditions noted are these: hCTPS1 25 nM, ATP 120 uM, UTP 160 uM, GTP 60 uM, L-Glutamine 100 uM, 25 degrees C. (In general: ADP-Glo turns the ADP formed in a reaction into a luminescent signal.)
Sequence of human CTPS1 (P17812 whole entry): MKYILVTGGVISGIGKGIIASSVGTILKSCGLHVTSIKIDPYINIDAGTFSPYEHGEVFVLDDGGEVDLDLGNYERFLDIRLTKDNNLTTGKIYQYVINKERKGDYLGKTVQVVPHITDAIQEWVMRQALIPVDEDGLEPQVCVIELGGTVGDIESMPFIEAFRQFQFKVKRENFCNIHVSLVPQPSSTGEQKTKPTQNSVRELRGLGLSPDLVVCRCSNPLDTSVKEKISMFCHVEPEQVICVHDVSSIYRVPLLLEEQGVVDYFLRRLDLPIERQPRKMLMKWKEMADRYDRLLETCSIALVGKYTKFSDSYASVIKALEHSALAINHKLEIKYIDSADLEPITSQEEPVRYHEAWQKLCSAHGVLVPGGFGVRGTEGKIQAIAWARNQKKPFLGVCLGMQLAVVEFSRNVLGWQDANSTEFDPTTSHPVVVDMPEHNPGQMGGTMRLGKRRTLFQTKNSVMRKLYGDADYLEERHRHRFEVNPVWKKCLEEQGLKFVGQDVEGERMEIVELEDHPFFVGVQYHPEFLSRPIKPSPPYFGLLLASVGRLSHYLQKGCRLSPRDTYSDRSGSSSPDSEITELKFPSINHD
Compound `CCOc1cncc(-c2ccc(C(=O)N3CCCC3c3ccnc(NS(=O)(=O)C4CC4)n3)nc2)n1` (stereo in doubt) [I-47, N-[4-[(2R)-1-[5-(6-ethoxypyrazin-2-yl)pyridine-2-carbonyl]pyrrolidin-2-yl]pyrimidin-2-yl]cyclopropanesulfonamide] gave a 50% inhibitory concentration (IC50) not below 1 µM.
The figure for `O=C(NC1(c2csc(NS(=O)(=O)C3CC3)n2)CC1)c1ccc2ccccc2c1` [I-1, N-(1-(2-(cyclopropanesulfonamido)thiazol-4-yl)cyclopropyl)-2-naphthamide] is 0.1 to 1 µM; for `O=C(NC1(c2csc(NS(=O)(=O)C3CC3)n2)CC1)c1ccc2ccccc2n1` [I-2, N-(1-(2-(cyclopropanesulfonamido)thiazol-4-yl)cyclopropyl)quinoline-2-carboxamide] it is not below 1 µM.
The figure for `O=C(NC1(c2csc(NS(=O)(=O)C3CC3)n2)CC1)c1cc2ccccc2cn1` [I-3, N-(1-(2-(cyclopropanesulfonamido)thiazol-4-yl)cyclopropyl)isoquinoline-3-carboxamide] is not below 1 µM; for `O=C(NC1(c2csc(NS(=O)(=O)C3CC3)n2)CC1)c1ccc2cnccc2c1` [I-4, N-(1-(2-(cyclopropanesulfonamido)thiazol-4-yl)cyclopropyl)isoquinoline-6-carboxamide] it is not below 1 µM.
The value for `O=C(NC1(c2csc(NS(=O)(=O)C3CC3)n2)CC1)c1cnc2ccccc2c1` [I-5, N-(1-(2-(cyclopropanesulfonamido)thiazol-4-yl)cyclopropyl)quinoline-3-carboxamide] was not below 1 µM.
`CCOc1cncc(-c2ccc3c(c2)CN(C(CC)c2csc(NS(=O)(=O)C4CC4)n2)C3=O)n1` (stereo not drawn) [I-6, N-(4-(1-(5-(6-ethoxypyrazin-2-yl)-1-oxoisoindolin-2-yl)propyl)thiazol-2-yl)cyclopropanesulfonamide]: the concentration for half-maximal inhibition (IC50) is less than 0.1 µM.
The value for `O=C(NC1(c2csc(NS(=O)(=O)C3CC3)n2)CC1)c1ccc2ccncc2c1` [I-7, N-(1-(2-(cyclopropanesulfonamido)thiazol-4-yl)cyclopropyl)isoquinoline-7-carboxamide] was not below 1 µM; that for `Cc1cn(-c2ccc(C(=O)NC3(c4csc(NS(=O)(=O)C5CC5)n4)CC3)nc2)cn1` [I-8, N-(1-(2-(cyclopropanesulfonamido)thiazol-4-yl)cyclopropyl)-5-(4-methyl-1H-imidazol-1-yl)picolinamide] was not below 1 µM; that for `O=C(NC1(c2csc(NS(=O)(=O)C3CC3)n2)CC1)c1ccc2ncccc2c1` [I-9, N-(1-(2-(cyclopropanesulfonamido)thiazol-4-yl)cyclopropyl)quinoline-6-carboxamide] was not below 1 µM.
The value for `O=C(NC1(c2csc(NS(=O)(=O)C3CC3)n2)CC1)c1ccc2cccnc2c1` [I-10, N-(1-(2-(cyclopropanesulfonamido)thiazol-4-yl)cyclopropyl)quinoline-7-carboxamide] was not below 1 µM; that for `O=C(NC1(c2csc(NS(=O)(=O)C3CC3)n2)CC1)c1ccc2c[n+]([O-])ccc2c1` [I-11, 6-(1-(2-(cyclopropanesulfonamido)thiazol-4-yl)cyclopropylcarbamoyl)isoquinoline 2-oxide] was not below 1 µM; that for `CCOc1cncc(-c2ccc3c(c2)CN(C2(c4csc(NS(=O)(=O)C5CC5)n4)CC2)C3=O)n1` [I-13, N-(4-(1-(5-(6-ethoxypyrazin-2-yl)-1-oxoisoindolin-2-yl)cyclopropyl)thiazol-2-yl)cyclopropanesulfonamide] was 0.1 to 1 µM.
The value for `CCOc1cncc(-c2ccc(C(=O)NC3(c4csc(N(C)S(=O)(=O)C5CC5)n4)CC3)nc2)n1` [I-14, 5-(6-ethoxypyrazin-2-yl)-N-(1-(2-(N-methylcyclopropanesulfonamido)thiazol-4-yl)cyclopropyl)picolinamide] was not below 1 µM; that for `CCOc1cncc(-c2ccc(C(=O)NCc3cc(NS(=O)(=O)C4CC4)ccn3)cc2)n1` [I-15, N-((4-(cyclopropanesulfonamido)pyridin-2-yl)methyl)-4-(6-ethoxypyrazin-2-yl) benzamide] was less than 0.1 µM.
